Measured values reported in PubChem BioAssay AID248 (DTP/NCI, 2004).
Toxic doses and inconclusive results are not listed. Cut-off read from the data, not from the text of the source: active = T/C of 150% or more; inactive = T/C below 125%.

System: L1210 leukemia ip in BDF1 mice, survival T/C
Assay: NCI In Vivo Anticancer Drug Screen. Data for tumor model L1210 Leukemia (intraperitoneal) in B6D2F1 (BDF1) mice
Details: endpoint: mean survival time, schedule: Q04DX003 (ip), higher = longer survival
In short: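 Transplanted-tumor mice were given test agent; controls received vehicle only. Survival readings from the two groups were divided (treated over control).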

Measured: T/C

COc1ccc2oc(C(=O)O)cc2c1
inactive: dose: 100.0 mg/kg/injection, vehicle: acetone 101 % of control | dose: 200.0 mg/kg/injection, vehicle: acetone 101 % of control | dose: 400.0 mg/kg/injection, vehicle: acetone 101 % of control

CCOC(=O)c1ccc(NCc2cnc(N)c(C#N)n2)cc1
inactive: dose: 100.0 mg/kg/injection, vehicle: saline with Tween-80 91 % of control | dose: 200.0 mg/kg/injection, vehicle: saline with Tween-80 95 % of control | dose: 400.0 mg/kg/injection, vehicle: saline with Tween-80 95 % of control
